According to patent US20210253575A1, “PYRROLIDINE AMINE COMPOUNDS FOR THE TREATMENT OF AUTOIMMUNE DISEASE” (Hoffmann-La Roche Inc., priority 2018, published 2021):

What follows are molecules tested against T1, human TLR9 (Homo sapiens, UniProt Q9NR96) (assay: HEK293-Blue-hTLR-9 cells assay (SEAP reporter, ODN2006 stimulation)). Details: HEK293-Blue-hTLR9 cells, ODN2006 ligand, 20 hrs incubation.
T1 sequence (Q9NR96 26-1032): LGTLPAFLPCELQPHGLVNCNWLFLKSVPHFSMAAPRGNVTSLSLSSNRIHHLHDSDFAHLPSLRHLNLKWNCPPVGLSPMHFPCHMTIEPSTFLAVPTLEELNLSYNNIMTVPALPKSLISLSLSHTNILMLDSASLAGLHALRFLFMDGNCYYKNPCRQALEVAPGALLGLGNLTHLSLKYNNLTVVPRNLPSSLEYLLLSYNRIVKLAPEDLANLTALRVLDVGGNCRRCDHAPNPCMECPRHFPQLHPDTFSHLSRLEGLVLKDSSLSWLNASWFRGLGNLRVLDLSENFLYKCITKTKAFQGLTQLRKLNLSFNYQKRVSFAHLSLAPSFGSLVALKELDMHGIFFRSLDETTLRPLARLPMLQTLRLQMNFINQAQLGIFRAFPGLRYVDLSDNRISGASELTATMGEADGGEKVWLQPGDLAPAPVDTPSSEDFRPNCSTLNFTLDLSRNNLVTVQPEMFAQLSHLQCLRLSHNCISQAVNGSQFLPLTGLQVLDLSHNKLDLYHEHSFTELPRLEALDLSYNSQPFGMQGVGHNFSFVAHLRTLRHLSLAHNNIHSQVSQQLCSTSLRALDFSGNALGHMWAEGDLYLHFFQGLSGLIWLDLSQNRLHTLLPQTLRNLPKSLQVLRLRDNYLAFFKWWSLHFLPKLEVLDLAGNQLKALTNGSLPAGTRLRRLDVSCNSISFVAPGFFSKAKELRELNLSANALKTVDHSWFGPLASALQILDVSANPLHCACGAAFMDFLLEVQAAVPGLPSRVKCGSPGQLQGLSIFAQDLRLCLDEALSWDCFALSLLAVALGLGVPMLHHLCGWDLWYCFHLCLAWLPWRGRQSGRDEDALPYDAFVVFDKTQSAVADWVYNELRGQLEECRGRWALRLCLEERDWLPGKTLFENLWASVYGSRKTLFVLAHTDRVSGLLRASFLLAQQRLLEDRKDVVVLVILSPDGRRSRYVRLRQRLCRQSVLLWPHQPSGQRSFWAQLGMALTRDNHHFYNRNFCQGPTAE
Format: cell-based
Procedure: The following tests were carried out in order to determine the activity of the compounds of formula (I) in HEK293-Blue-hTLR-7/8/9 cells assay.
HEK293-Blue-hTLR-9 Cells Assay:
A stable HEK293-Blue-hTLR-9 cell line was purchased from InvivoGen (Cat. #: hkb-htlr9, San Diego, Calif., USA). These cells were originally designed for studying the stimulation of human TLR9 by monitoring the activation of NF-κB. A SEAP (secreted embryonic alkaline phosphatase) reporter gene was placed under the control of the IFN-β minimal promoter fused to five NF-κB and AP-1-binding sites. The SEAP was induced by activating NF-κB and AP-1 via stimulating HEK-Blue hTLR9 cells with TLR9 ligands. Therefore the reporter expression was declined by TLR9 antagonist under the stimulation of a ligand, such as ODN2006 (Cat. #: tlrl-2006-1, Invivogen, San Diego, Calif., USA), for incubation of 20 hrs. The cell culture supernatant SEAP reporter activity was determined using QUANTI-Blue™ kit (Cat. #: rep-qb1, Invivogen, San Diego, Calif., USA) at a wavelength of 640 nm, a detection medium that turns purple or blue in the presence of alkaline phosphatase.
HEK293-Blue-hTLR9 cells were incubated at a density of 250,000˜450,000 cells/mL in a volume of 170 μL in a 96-well plate in Dulbecco's Modified Eagle's medium (DMEM) containing 4.5 g/L glucose, 50 U/mL penicillin, […], […], 2 mM L-glutamine, 10% (v/v) heat-inactivated fetal bovine serum with addition of 20 μL test compound in a serial dilution in the presence of final DMSO at 1% and 10 μL of 20 uM ODN2006 in above DMEM, perform incubation under 37° C. in a CO2incubator for 20 hrs. Then 20 μL of the superatant from each well was incubated with 180 μL Quanti-blue substrate solution at 37° C. for 2 hrs and the absorbance was read at 620˜655 nm using a spectrophotometer. The signalling pathway that TLR9 activation leads to downstream NF-κB activation has been widely accepted, and therefore similar reporter assay was modified for evaluating TLR9 antagonist.

Row | SMILES | IC50 [nM]
1 | N#Cc1ccc(N2CC(CN3CCC4(CCNCC4)CC3)C3(CC3)C2)c2nccnc12 (stereo not shown) [Example 16, 8-[7-(3,9-Diazaspiro[5.5]undecan-3-ylmethyl)-5-azaspiro[2.4]heptan-5-yl]quinoxaline-5-carbonitrile] | 50
2 | C[C@H]1CN(c2ccc(C#N)c3nccnc23)C[C@@H]1CN1CCC2(CCNCC2)CC1 [Example 17, 8-[(3S,4R)-3-(3,9-diazaspiro[5.5]undecan-3-ylmethyl)-4-methyl-pyrrolidin-1-yl]quinoxaline-5-carbonitrile] | 134
3 | N#Cc1ccc(N2CC(CN3C[C@H]4CNC[C@H]4C3)C3(CC3)C2)c2nccnc12 (stereo partly drawn) [Example 18, 8-[7-[[(3aR,6aS)-2,3,3a,4,6,6a-hexahydro-H-pyrrolo[3,4-c]pyrrol-5-yl]methyl]-5-azaspiro[2.4]heptan-5-yl]quinoxaline-5-carbonitrile] | 97
4 | FC(F)(F)c1ccc(N2CC(CN3CCNCC3)C3(CC3)C2)c2nccnc12 (stereo not shown) [Example 20, 5-[7-(Piperazin-1-ylmethyl)-5-azaspiro[2.4]heptan-5-yl]-8-(trifluoromethyl)quinoxaline] | 5640
5 | N#Cc1ccc(N2CC(CN3CCC4(CCCNC4)C3)C3(CC3)C2)c2nccnc12 (stereo not shown) [Example 22, 8-[7-(2,9-Diazaspiro[4.5]decan-2-ylmethyl)-5-azaspiro[2.4]heptan-5-yl]quinoxaline-5-carbonitrile] | 153
6 | C[C@H]1CN(c2ccc(C#N)c3ncccc23)C[C@@H]1CN1CCC2(CCNCC2)CC1 [Example 23, 5-[(3S,4R)-3-(3,9-diazaspiro[5.5]undecan-3-ylmethyl)-4-methyl-pyrrolidin-1-yl]quinoline-8-carbonitrile] | 45
7 | N#Cc1ccc(N2CC(CN3CC4(CCCNC4)C3)C3(CC3)C2)c2nccnc12 (stereo not shown) [Example 24, 8-[7-(2,8-Diazaspiro[3.5]nonan-2-ylmethyl)-5-azaspiro[2.4]heptan-5-yl]quinoxaline-5-carbonitrile] | 82
8 | N#Cc1ccc(N2CC(CN3C4CCC3CC(N)C4)C3(CC3)C2)c2nccnc12 (stereo not shown) [Example 25, 8-[7-[(3-Amino-8-azabicyclo[3.2.1]octan-8-yl)methyl]-5-azaspiro[2.4]heptan-5-yl]quinoxaline-5-carbonitrile] | 75
9 | N#Cc1ccc(N2C[C@H](CN3CCC(N)CC3)[C@@H](C(F)(F)F)C2)c2nccnc12 [Example 26, 8-[(3S,4R)-3-[(4-Amino-1-piperidyl)methyl]-4-(trifluoromethyl)pyrrolidin-1-yl]quinoxaline-5-carbonitrile] | 258
10 | C[C@H]1CN(c2ccc(C#N)c3nccnc23)C[C@@H]1CN1CCC2(CCNC2)C1 (stereo partly drawn) [Example 30, 8-[(3S,4R)-3-(2,7-diazaspiro[4.4]nonan-2-ylmethyl)-4-methyl-pyrrolidin-1-yl]quinoxaline-5-carbonitrile] | 307
11 | FC(F)(F)c1ccc(N2CC(CN3CCC4(CCNCC4)CC3)C3(CC3)C2)c2nccnc12 (stereo not shown) [Example 31, 3-[[5-[8-(Trifluoromethyl)quinoxalin-5-yl]-5-azaspiro[2.4]heptan-7-yl]methyl]-3,9-diazaspiro[5.5]undecane] | 383
12 | N#Cc1ccc(N2CC(CN3CCC4(CCNCC4)C3)C3(CC3)C2)c2nccnc12 (stereo not shown) [Example 32, 8-[7-(2,8-Diazaspiro[4.5]decan-2-ylmethyl)-5-azaspiro[2.4]heptan-5-yl]quinoxaline-5-carbonitrile] | 80
13 | C[C@H]1CN(c2ccc(C#N)c3ncccc23)C[C@@H]1CN1CCC2(CCNC2)C1 (stereo partly drawn) [Example 35, 5-[(3S,4R)-3-(2,7-diazaspiro[4.4]nonan-2-ylmethyl)-4-methyl-pyrrolidin-1-yl]quinoline-8-carbonitrile] | 50
14 | N#Cc1ccc(N2CCC(CN3CCC4(CCNCC4)CC3)C2)c2nccnc12 (stereo not shown) [Example 37, 8-[3-(3,9-Diazaspiro[5.5]undecan-3-ylmethyl)pyrrolidin-1-yl]quinoxaline-5-carbonitrile] | 32
15 | N#Cc1ccc(N2CC(CNC3CCCNCC3)C3(CC3)C2)c2nccnc12 (stereo not shown) [Example 39, 8-[7-[(Azepan-4-ylamino)methyl]-5-azaspiro[2.4]heptan-5-yl]quinoxaline-5-carbonitrile] | 97
16 | C[C@@H]1CN(c2ccc(C(F)(F)F)c3nccnc23)C[C@H]1CNC1CCCNCC1 (stereo partly shown) [Example 40] | 685
17 | FC(F)(F)c1ccc(N2CC(CN3C[C@H]4CNC[C@H]4C3)C3(CC3)C2)c2nccnc12 (stereo partly drawn) [Example 41, 5-[7-[[(3aR,6aS)-2,3,3a,4,6,6a-hexahydro-H-pyrrolo[3,4-c]pyrrol-5-yl]methyl]-5-azaspiro[2.4]heptan-5-yl]-8-(trifluoromethyl)quinoxaline] | 1200
18 | N#Cc1ccc(N2CC(CN3CC4(CC(N)C4)C3)C3(CC3)C2)c2nccnc12 (stereo not shown) [Example 42, 8-[7-[(6-Amino-2-azaspiro[3.3]heptan-2-yl)methyl]-5-azaspiro[2.4]heptan-5-yl]quinoxaline-5-carbonitrile] | 153
19 | N#Cc1ccc(N2CC(CN3CCC4(CCNC4)C3)C3(CC3)C2)c2cccnc12 (stereo not shown) [Example 43, 5-[7-(2,7-Diazaspiro[4.4]nonan-2-ylmethyl)-5-azaspiro[2.4]heptan-5-yl]quinoline-8-carbonitrile] | 62
20 | N#Cc1ccc(N2C[C@H](CN3CCC4(CCCNC4)CC3)[C@@H](C(F)(F)F)C2)c2nccnc12 [Example 45, 8-[(3S,4R)-3-(2,9-diazaspiro[5.5]undecan-9-ylmethyl)-4-(trifluoromethyl)pyrrolidin-1-yl]quinoxaline-5-carbonitrile] | 224
21 | N#Cc1ccc(N2C[C@H](CN3CCC4(CCNCC4)C3)[C@@H](C(F)(F)F)C2)c2nccnc12 [Example 46, 8-[(3S,4R)-3-(2,8-diazaspiro[4.5]decan-2-ylmethyl)-4-(trifluoromethyl)pyrrolidin-1-yl]quinoxaline-5-carbonitrile] | 275
22 | N#Cc1ccc(N2C[C@H](CN3CC4(CC(N)C4)C3)[C@@H](C(F)(F)F)C2)c2nccnc12 [Example 47, 8-[(3S,4R)-3-[(6-amino-2-azaspiro[3.3]heptan-2-yl)methyl]-4-(trifluoromethyl)pyrrolidin-1-yl]quinoxaline-5-carbonitrile] | 177
23 | N#Cc1ccc(N2C[C@H](CN3CC4(CCNCC4)C3)[C@@H](C(F)(F)F)C2)c2nccnc12 [Example 48, 8-[(3S,4R)-3-(2,7-diazaspiro[3.5]nonan-2-ylmethyl)-4-(trifluoromethyl)pyrrolidin-1-yl]quinoxaline-5-carbonitrile] | 97
24 | N#Cc1ccc(N2CC(CN3CCC4(CC3)CNCCO4)C3(CC3)C2)c2nccnc12 (stereo not shown) [Example 49, 8-[7-(1-Oxa-4,9-diazaspiro[5.5]undecan-9-ylmethyl)-5-azaspiro[2.4]heptan-5-yl]quinoxaline-5-carbonitrile] | 87
25 | N#Cc1ccc(N2CC(CN3CC4CCNCC43)C3(CC3)C2)c2nccnc12 (stereo not shown) [Example 50, 8-[7-(3,8-Diazabicyclo[4.2.0]octan-8-ylmethyl)-5-azaspiro[2.4]heptan-5-yl]quinoxaline-5-carbonitrile] | 259
